Patent US12161634B2, “Pyruvate kinase R (PKR) activating compositions” (Novo Nordisk Health Care AG, priority 2020, dated 2024)

How the values were obtained:
[1] = Polymorph screening (solid form by XRPD); type: physicochemical
Experimental: Polymorph screening experiments were performed using a series of crystallization and solid transition methods.
Solid vapor diffusion experiments were conducted using 13 different solvents. Approximately 15 mg of Compound 1 (Type A) was weighed into a 4-mL vial, which was placed into a 20-mL vial with 3 mL of volatile solvent. The 20-mL vial was sealed with a cap and kept at RT for 7 days, allowing solvent vapor to interact with the sample.
Slurry experiments were conducted […] in different solvent systems. About 15 mg of Compound 1 (Type A) was suspended in 0.3 mL of solvent in a 2-mL glass vial. After the suspension was stirred magnetically for 7 days at 4° C., RT or 50° C., the remaining solids were isolated for XRPD analysis (Method A).
Approximately 15 mg of Compound 1 (Type A) was dissolved in an appropriate solvent to obtain a clear solution in a 4-mL vial. This solution was then placed into a 20-mL vial with 3 mL of anti-solvent. The 20-mL vial was sealed with a cap and kept at RT, allowing sufficient time for organic vapor to interact with the solution. After 7 days, solids were isolated for XRPD analysis (Method A).
(§1) Compound 1 (Type A) was weighed into a 3 mL glass vial with the addition of the corresponding solvent or solvent mixture. After being vortexed and ultrasonically shaken, the suspension was filtered, and the filtrate was transferred to a clean 4 mL shell vial. A small amount of Compound 1 (Type A) was added as a seed crystal. Subsequently, the shell vial was sealed with a polyethylene plug with one pinhole and enclosed in a 20 mL glass vial containing 3 mL of the anti-solvent at room temperature for liquid vapor diffusion. The solid forms resulting from the experiments were characterized by XRPD analysis (Method C).
Slow evaporation experiments were performed under 4 conditions. Briefly, about 15 mg of Compound 1 (Type A) was mixed with 1.0-2.5 mL of solvent in a 4-mL glass vial. If the solids were not dissolved completely, suspensions were filtered using a PTFE membrane (pore size of 0.2 μm) and the filtrates were used for the follow-up steps. The visually clear solutions were subjected to evaporation at RT with vials sealed by Parafilm® (3-5 pinholes).
as §1, with “placed” for “enclosed”, “fume hood” for “20 mL glass vial containing 3 mL of the anti-solvent”, “slow evaporation.” for “liquid vapor diffusion.”
A total of 8 anti-solvent addition experiments were carried out. About 15 mg of Compound 1 (Type A) was dissolved in 0.2-4.0 mL of solvent to obtain a clear solution. The solution was magnetically stirred followed by addition of 0.2 mL anti-solvent per step until precipitate appeared or the total amount of anti-solvent reached 15.0 mL. The obtained precipitate was isolated for XRPD analysis (Method A).
A total of 2 reverse anti-solvent addition experiments were carried out. About 15 mg of Compound 1 (type A) was dissolved in 0.2 mL solvent to obtain a clear solution. The solution was added into 2 mL anti-solvent. The obtained precipitate was isolated for XRPD analysis (Method A). Results summarized in Table 16 indicated Type A or a mixture of Type A and amorphous material were generated.
Compound 1 (Type A) was weighed into a 3 mL glass vial with the addition of the corresponding solvent or solvent mixture. After being vortexed and ultrasonically shaken to accelerate dissolution, the suspension was placed in a biochemical incubator and equilibrated at 50° C. for 30 minutes. […]

[2] = Dynamic vapor sorption (DVS); type: physicochemical
Experimental: Dynamic Vapor Sorption (DVS) was measured with a Surface Measurement System (SMS) DVS Intrinsic.

O=C([C@H](CO)c1ccccc1)N1CC2=C(C1)CN(S(=O)(=O)c1cnc3c(c1)OCCO3)C2 [Type A, (S)-1-(5-[2H,3H-[1,4]dioxino[2,3-b]pyridine-7-sulfonyl]-1H,2H,3H,4H,5H,6H-pyrrolo[3,4-c]pyrrol-2-yl)-3-hydroxy-2-phenylpropan-1-one]
Solid Form ([1]; liquid vapor diffusion RT 7 days, solvent 1,4-Dioxane, anti-solvent EtOAc): Type A
Solid Form ([1]; liquid vapor diffusion RT 7 days, solvent 1,4-Dioxane, anti-solvent MTBE): Type A
Solid Form ([1]; liquid vapor diffusion RT 7 days, solvent 1,4-Dioxane, anti-solvent MeOH): Type B
Solid Form ([1]; liquid vapor diffusion RT 7 days, solvent 1,4-Dioxane, anti-solvent Toluene): Type A
Solid Form ([1]; liquid vapor diffusion RT 7 days, solvent 1,4-Dioxane, anti-solvent n-Heptane): Type F
Solid Form ([1]; liquid vapor diffusion RT 7 days, solvent Acetone, anti-solvent H2O): Type B
Solid Form ([1]; liquid vapor diffusion RT 7 days, solvent Acetone, anti-solvent IPA): Type A
Solid Form ([1]; liquid vapor diffusion RT 7 days, solvent Acetone, anti-solvent MIBK): Type A
Solid Form ([1]; liquid vapor diffusion RT 7 days, solvent CHCl3, anti-solvent 2-MeTHF): Type A
Solid Form ([1]; liquid vapor diffusion RT 7 days, solvent CHCl3, anti-solvent EtOH): Type A
Solid Form ([1]; liquid vapor diffusion RT 7 days, solvent CHCl3, anti-solvent IPAc): Type A
Solid Form ([1]; liquid vapor diffusion RT 7 days, solvent THF, anti-solvent EtOAc): Type A
Solid Form ([1]; liquid vapor diffusion RT 7 days, solvent THF, anti-solvent MeOH): Type A
Solid Form ([1]; liquid vapor diffusion, seeded, RT, 3.0 mg in 0.5 mL MeOH, anti-solvent MTBE): Type B
Solid Form ([1]; liquid vapor diffusion, seeded, RT, 4.9 mg in 0.5 mL Acetone, anti-solvent MTBE): Type A
Solid Form ([1]; liquid vapor diffusion, seeded, RT, 10.0 mg in 0.5 mL ACN, anti-solvent MTBE): Type B
Solid Form ([1]; liquid vapor diffusion, seeded, RT, 10.1 mg in 0.5 mL ACN, anti-solvent H2O): Type B
Solid Form ([1]; liquid vapor diffusion, seeded, RT, 10.4 mg in 0.5 mL THF, anti-solvent n-pentane): Type D
Solid Form ([1]; liquid vapor diffusion, seeded, RT, 10.8 mg in 0.1 mL DMSO, anti-solvent IPA): Type A
Solid Form ([1]; liquid vapor diffusion, seeded, RT, 10.9 mg in 0.1 mL DMF, anti-solvent IPAc): Type I
Solid Form ([1]; liquid vapor diffusion, seeded, RT, 11.5 mg in 0.5 mL THF, anti-solvent MeOH): Type D
Solid Form ([1]; liquid vapor diffusion, seeded, RT, 12.1 mg in 0.5 mL THF, anti-solvent EtOAc): Type M
Solid Form ([1]; liquid vapor diffusion, seeded, RT, 17.6 mg in 0.5 mL 1,4-dioxane, anti-solvent n-heptane): Type A
Solid Form ([1]; liquid vapor diffusion, seeded, RT, 30.8 mg in 0.2 mL NMP, anti-solvent MTBE): Type J
Solid Form ([1]; liquid vapor diffusion, seeded, RT, 31.9 mg in 0.2 mL DMSO, anti-solvent H2O): Type A
Solid Form ([1]; liquid vapor diffusion, seeded, RT, 32.1 mg in 0.2 mL DMF, anti-solvent Toluene): Type H
Solid Form ([1]; liquid vapor diffusion, seeded, RT, 34.3 mg in 0.3 mL CHCl3, anti-solvent n-pentane): Type A
Solid Form ([1]; slow cooling 50° C. to 5° C., 15.4 mg in 1.5 mL 2-MeTHF): Type K
Solid Form ([1]; slow cooling 50° C. to 5° C., 15.7 mg in 1.5 mL EtOH): Type A
Solid Form ([1]; slow cooling 50° C. to 5° C., 20.3 mg in 1.5 mL EtOAc): Type B
Solid Form ([1]; slow cooling 50° C. to 5° C., 20.5 mg in 1.5 mL MeOH): Type B
Solid Form ([1]; slow cooling 50° C. to 5° C., 39.7 mg in 1.0 mL THF/H2O (1:1 v/v), then kept at 5° C. for 22 days): Type L
Solid Form ([1]; slow cooling 50° C. to 5° C., 40.3 mg in 0.8 mL ACN/H2O (2:1 v/v)): Type B
Solid Form ([1]; slow cooling 50° C. to 5° C., 40.3 mg in 1.0 mL Acetone/n-heptane (3:1 v/v)): Type A
Solid Form ([1]; slow cooling 50° C. to 5° C., 40.4 mg in 1.0 mL 1,4-dioxane/H2O (1:1 v/v)): Type B
Solid Form ([1]; slow cooling 50° C. to 5° C., 40.6 mg in 1.0 mL Acetone/H2O (2:1 v/v)): Type B
Solid Form ([1]; slow evaporation, seeded, RT, 3.0 mg in 1.0 mL MeOH): Type B
Solid Form ([1]; slow evaporation, seeded, RT, 3.2 mg in 0.5 mL EtOAc/2-MeTHF (1:1 v/v)): Type B
Solid Form ([1]; slow evaporation, seeded, RT, 3.2 mg in 1.0 mL EtOAc): Type B
Solid Form ([1]; slow evaporation, seeded, RT, 4.5 mg in 0.5 mL Acetone/EtOH (1:1 v/v)): Type A
Solid Form ([1]; slow evaporation, seeded, RT, 4.6 mg in 0.5 mL Acetone): Type A
Solid Form ([1]; slow evaporation, seeded, RT, 4.7 mg in 0.5 mL Acetone/EtOAc (1:1 v/v)): Type A
Solid Form ([1]; slow evaporation, seeded, RT, 5.0 mg in 0.5 mL ACN/MIBK (1:1 v/v)): Type A
Solid Form ([1]; slow evaporation, seeded, RT, 5.2 mg in 0.5 mL MeOH/Acetone (1:1 v/v)): Type B
Solid Form ([1]; slow evaporation, seeded, RT, 7.3 mg in 0.5 mL DCM/IPAc (1:1 v/v)): Type A
Solid Form ([1]; slow evaporation, seeded, RT, 9.6 mg in 0.5 mL THF/H2O (5:1 v/v)): Type B
Solid Form ([1]; slow evaporation, seeded, RT, 9.8 mg in 0.5 mL ACN/H2O (5:1 v/v)): Type B
Solid Form ([1]; slow evaporation, seeded, RT, 10.0 mg in 0.5 mL ACN): Type B
Solid Form ([1]; slow evaporation, seeded, RT, 10.1 mg in 0.5 mL THF): Type D
Solid Form ([1]; slow evaporation, seeded, RT, 10.7 mg in 0.5 mL THF/EtOH (1:1 v/v)): Type A
Solid Form ([1]; slow evaporation, seeded, RT, 10.8 mg in 0.5 mL DCM/n-heptane (1:1 v/v)): Type A
Solid Form ([1]; slow evaporation, seeded, RT, 11.1 mg in 0.5 mL ACN/EtOAc (1:1 v/v)): Type A
Solid Form ([1]; slow evaporation, seeded, RT, 13.0 mg in 0.5 mL Acetone/H2O (5:1 v/v)): Type B
Solid Form ([1]; slow evaporation, seeded, RT, 13.8 mg in 0.5 mL ACN/EtOH (1:1 v/v)): Type A
Solid Form ([1]; slow evaporation, seeded, RT, 14.4 mg in 0.5 mL ACN/2-MeTHF (1:1 v/v)): Type A
Solid Form ([1]; slow evaporation, seeded, RT, 17.3 mg in 0.5 mL ACN/IPA (4:1 v/v)): Type A
Solid Form ([1]; slow evaporation, seeded, RT, 22.7 mg in 0.5 mL CHCl3/IPA (1:1 v/v)): Type A
Solid Form ([1]; slow evaporation, seeded, RT, 22.9 mg in 0.5 mL CHCl3/toluene (1:1 v/v)): Type A
Solid Form ([1]; slow evaporation, seeded, RT, 27.7 mg in 0.5 mL ACN/n-heptane (10:1 v/v)): Type B
Solid Form ([1]; slow evaporation, seeded, RT, 32.9 mg in 0.5 mL 1,4-dioxane/H2O (4:1 v/v)): Gel
Solid Form ([1]; slurry of Type A 7 days, 1,4-Dioxane/MeOH (v/v, 1:1), 50° C.): Type A
Solid Form ([1]; slurry of Type A 7 days, 1,4-Dioxane/Toluene (v/v, 1:1), 50° C.): Type A
Solid Form ([1]; slurry of Type A 7 days, 1,4-Dioxane, 50° C.): Type A
Solid Form ([1]; slurry of Type A 7 days, 1,4-Dioxane, RT): Type C
Solid Form ([1]; slurry of Type A 7 days, 2-MeTHF, 50° C.): Type A
Solid Form ([1]; slurry of Type A 7 days, ACN/IPA (v/v, 1:3), 50° C.): Type A
Solid Form ([1]; slurry of Type A 7 days, ACN, 4° C.): Type A
Solid Form ([1]; slurry of Type A 7 days, Acetone/H2O (v/v, 1:3), 50° C.): Type B
Solid Form ([1]; slurry of Type A 7 days, Acetone/IPAc (v/v, 1:3), 50° C.): Type A
Solid Form ([1]; slurry of Type A 7 days, Acetone, RT): Type A
Solid Form ([1]; slurry of Type A 7 days, CHCl3/EtOAc (v/v, 1:3), 50° C.): Type A
Solid Form ([1]; slurry of Type A 7 days, CHCl3/MeOH (v/v, 1:3), 50° C.): Type A
Solid Form ([1]; slurry of Type A 7 days, CHCl3/Toluene (1/3), 4° C.): Type B + Type A
Solid Form ([1]; slurry of Type A 7 days, DCM/EtOH (v/v, 1:3), 50° C.): Type A
Solid Form ([1]; slurry of Type A 7 days, DCM/n-Heptane (1/3), 4° C.): Type A
Solid Form ([1]; slurry of Type A 7 days, DMSO/H2O (1/9), RT): Type B
Solid Form ([1]; slurry of Type A 7 days, EtOAc, 50° C.): Type A
Solid Form ([1]; slurry of Type A 7 days, EtOH, 50° C.): Type A
Solid Form ([1]; slurry of Type A 7 days, H2O, 50° C.): Type B
Solid Form ([1]; slurry of Type A 7 days, IPA, 50° C.): Type A
Solid Form ([1]; slurry of Type A 7 days, IPAc, 50° C.): Type A
Solid Form ([1]; slurry of Type A 7 days, MIBK, 50° C.): Type A
Solid Form ([1]; slurry of Type A 7 days, MTBE, 50° C.): Type A
Solid Form ([1]; slurry of Type A 7 days, MeOH, 50° C.): Type B
Solid Form ([1]; slurry of Type A 7 days, THF, 4° C.): Type D
Solid Form ([1]; slurry of Type A 7 days, THF, 50° C.): Type A
Solid Form ([1]; slurry of Type A 7 days, Toluene, 50° C.): Type A
Solid Form ([1]; slurry of Type A 7 days, n-Heptane, 50° C.): Type A
hygroscopicity ([2]; DVS at RT): hygroscopic
water uptake from 40% RH to 80% RH ([2]; DVS, RT): 1.0%
water uptake up to 40% RH ([2]; DVS, up to 40% RH (ambient condition), RT): 3.4%
form change before and after DVS test ([2]; RT, determined by XRPD): No form change
